Several values for one entry are separate records, joined by “and”; a condition that tells them apart may be missing. Equal values may be shown once.
How the values were obtained:
human CYP11B2 enzyme = target: T1, human CYP11B2 enzyme (Homo sapiens, UniProt P19099); assay: Enzyme inhibition activity assay in G402 cells stably expressing human CYP11B2 (aldosterone production from 11-DOC, LC/MS); format: cell-based; details: 1 µM 11-DOC, 16 hours, aldosterone detected
T1 construct: the ORF of human CYP11B1 or CYP11B2 were transfected into G402 cells; expressed in transfected cells
T1 sequence (P19099 25-503): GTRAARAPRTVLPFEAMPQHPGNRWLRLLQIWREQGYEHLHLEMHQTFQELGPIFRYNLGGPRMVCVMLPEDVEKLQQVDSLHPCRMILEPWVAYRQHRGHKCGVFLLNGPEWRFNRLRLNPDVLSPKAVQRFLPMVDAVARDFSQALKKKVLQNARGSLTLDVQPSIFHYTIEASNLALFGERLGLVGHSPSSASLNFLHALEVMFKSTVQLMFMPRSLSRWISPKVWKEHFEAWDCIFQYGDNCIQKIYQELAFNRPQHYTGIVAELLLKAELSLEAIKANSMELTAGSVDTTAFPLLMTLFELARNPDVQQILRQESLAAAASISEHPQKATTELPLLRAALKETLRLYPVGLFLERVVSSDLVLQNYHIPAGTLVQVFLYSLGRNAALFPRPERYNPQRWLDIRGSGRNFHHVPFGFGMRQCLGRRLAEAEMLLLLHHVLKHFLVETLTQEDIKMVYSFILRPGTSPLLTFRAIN
Description: (§1) G402 cells (ATCC, CRL 1440) are epithelioid cells isolated from the kidney of a patient with renal failure and are a type of leiomyoblastoma. For the screening of highly specific CYP11B2 inhibitors, we specifically used G402 cell lines stably expressing human CYP11B2 enzyme or human CYP11B1 enzyme for experimental development.
(§2) Construction of Stably Transfected Cell Lines: Expression plasmids containing suitable promoters, suitable drug resistance markers, and the ORF of human CYP11B1 or CYP11B2 were transfected into G402 cells using standard techniques. The cells were then screened using the specific puromycin resistance marker. Monoclonal cells stably expressing human CYP11B2 were selected for expansion, and 11-deoxycorticosterone (11-DOC) was used as the specific substrate to evaluate enzyme activity based on aldosterone production. Monoclonal cells stably expressing human CYP11B1 were selected for expansion, and 11-deoxycortisol (11-DC) was used as the specific substrate, with cortisol production as the detection target for specific enzyme activity evaluation. The G402 cell lines stably expressing CYP11B1/CYP11B2 were cultured at 37 °C, 5% CO2, 95% air in complete medium (McCoy's 5A + 10% FBS + 1% PS + 0.5 µg/mL puromycin).
(§3) Enzyme Inhibition Activity Assay: CYP11B1 G402/CYP11B2 G402 cells were spread out flatly in cell culture plates. After 24 hours, the medium was changed to an enzyme testing system (DMEM/F12 + 2.5% charcoal-stripped FCS). Small molecule inhibitors at various concentrations were added. After 1 hour, appropriate concentrations of specific substrates (1 µM 11-DOC / 1 µM 11-DC) were added and co-incubated with the cells for 16 hours. Cells were then collected, and specific products were detected using LC/MS methods with an AB SCIEX TRIPLE QUAD 5500+, CTO-40S instrument (CYP11B2 enzyme detecting aldosterone; CYP11B1 enzyme detecting cortisol).
(§4) The IC50 values of the compounds were determined based on the G402 testing system. The dose-dependent inhibition of enzyme activity was calculated by plotting the added inhibitor concentration (x-axis) against the percentage of product inhibitory activity relative to the control group (y-axis) based on product formation at various compound concentrations. The following data were then fitted using the least squares method with XLfit 5.5.0 for a four-parameter logistic curve fit: [formula] • Y-axis: Percentage of product inhibitory activity relative to the control group; • logIC50: IC50 was determined using XLFit.
(§5) The maximum enzyme activity corresponds to the amount of control product steroid/aldosterone in the absence of inhibitor, set as 100%. The minimum enzyme activity corresponds to the amount of reference control product steroid/aldosterone in the presence of inhibitor. Table 3 Inhibitory Activity of the Compounds of the Present Disclosure on CYP11B2 and CYP11B1

plasma hormone levels = assay: Pharmacodynamic determination in monkeys: plasma aldosterone and cortisol after ACTH stimulation; format: in vivo, cynomolgus monkeys; details: P.O.
Method: Cynomolgus monkeys were used as test animals to evaluate the pharmacodynamics of multiple compounds of the present disclosure on plasma hormone levels following gavage administration (P.O.) at various doses such as 0.1 mpk (and others, e.g., 0.03 mpk, 0.1 mpk, and 0.3 mpk).
Male cynomolgus monkeys, Suzhou Xishan Zhongke Laboratory Animal Co., Ltd. Animal production license number: SCXK (Su) 2023-0001, animal use license number: SYXK (Su) 2020-0017.
Male cynomolgus monkeys were performed gavage administration (P.O.) at doses set as: 0 mpk (vehicle group, i.e., Veh group), 0.03 mpk, 0.1 mpk, and 0.3 mpk. In each group, 15 µg/kg ACTH was injected intramuscularly 1 hour after dosing. Continuous venous blood samples were collected from each group at 1 hour before administration and at multiple time points after administration. Blood samples were collected, and plasma aldosterone and its precursors, as well as plasma corticosterone and its precursors, at multiple time points were analyzed using LC/MS methods.
Venous blood samples were collected at 1-2 hours before gavage administration and at multiple time points after intramuscular injection of ACTH (adrenocorticotropic hormone). The samples were placed in EDTA-K2 tubes, centrifuged at 4 °C, 2600 g for 10 minutes to separate plasma, which was then stored at -80 °C.
• HPLC: Waters ACQUITY UPLC I-Class PLUS; • Mass spectrometry conditions: Triple Quad™ 7500 (Serial No. FA224362212) mass spectrometer; • Chromatographic column: phenomenex kinetex 2.6µm C8 100A 50 × 4.60 mm; • Mobile phase: mobile phase A was 0.5 mM ammonium fluoride solution containing 0.1% formic acid; mobile phase B was MeOH.
The data in Figs. 1, 2, 3, 4, and 5 are analyzed based on PD changes at 30 minutes after ACTH stimulation. The percentage of PD relative to the control group (Veh group) at 30 minutes after ACTH stimulation serves as the main basis for pharmacodynamic evaluation, calculated according to the following formula: [formula] where PD refers to aldosterone or cortisol. Table 8 Pharmacodynamic Evaluation of Example Compound C44 in Monkeys

in vivo = details: male, Sprague-Dawley, rat, plasma, po, 10 mg/kg
Method: • 1) 50 µL of plasma sample was precipitated by adding 200 µL of acetonitrile, vortex mixed, and centrifuged for 15 minutes. • 2) The processed supernatant was diluted with water and analyzed by LC/MS/MS to determine the concentration of the test compound.
Pharmacokinetic parameters were calculated using WinNonlin 8.3. […] Cmax represents the maximum plasma concentration, T1/2 represents the terminal elimination half-life, MRTInf represents the mean residence time, and AUC represents the area under the plasma concentration-time curve.

human CYP11B1 enzyme = target: T2, human CYP11B1 enzyme (Homo sapiens, UniProt P15538); assay: Enzyme inhibition activity assay in G402 cells stably expressing human CYP11B1 (cortisol production from 11-DC, LC/MS); format: cell-based; details: 1 µM 11-DC, 16 hours, cortisol detected
T2 construct: the ORF of human CYP11B1 or CYP11B2 were transfected into G402 cells; expressed in transfected cells
T2 sequence (P15538 25-503): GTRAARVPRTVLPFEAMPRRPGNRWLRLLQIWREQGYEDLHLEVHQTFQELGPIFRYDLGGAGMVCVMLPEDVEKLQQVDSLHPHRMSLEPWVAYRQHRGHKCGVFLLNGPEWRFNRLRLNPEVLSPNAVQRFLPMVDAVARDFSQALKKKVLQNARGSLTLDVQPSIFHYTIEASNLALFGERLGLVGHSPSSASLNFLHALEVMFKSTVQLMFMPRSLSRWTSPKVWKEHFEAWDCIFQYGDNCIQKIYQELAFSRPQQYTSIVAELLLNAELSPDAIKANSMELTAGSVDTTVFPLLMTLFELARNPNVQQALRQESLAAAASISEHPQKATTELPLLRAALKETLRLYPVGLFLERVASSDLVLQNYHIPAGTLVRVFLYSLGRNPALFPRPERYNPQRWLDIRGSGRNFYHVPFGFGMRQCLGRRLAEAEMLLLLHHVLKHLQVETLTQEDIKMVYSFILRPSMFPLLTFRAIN
Description: as §1, §2, §3, §4, §5

[1] = Pharmacokinetic determination in mice after gavage administration (P.O.); format: in vivo; details: male, CD-1, mouse, po, 10 mg/kg, plasma; for AUC(0-t): read-out: AUC0-24
Method: Mice and rats were used as test animals to study the pharmacokinetic behavior of the compounds of the present disclosure in plasma following gavage administration (P.O.). Plasma samples were collected at specific time points, compound concentrations in plasma were detected by LC-MS/MS, and pharmacokinetic parameters were calculated to evaluate the pharmacokinetics.
• Mice, CD-1, male, Zhejiang Vital River Laboratory Animal Technology Co., Ltd. • Rats, Sprague-Dawley, male, Zhejiang Vital River Laboratory Animal Technology Co., Ltd., Shanghai Jihui Experimental Animal Breeding Co., Ltd.
After administration to mice and rats, venous blood samples of 0.03 mL and 0.2 mL, respectively, were collected at 0.0833 (IV), 0.25, 0.5, 1, 2, 4, 8, and 24 hours and placed in EDTA-K2 test tubes. Plasma was separated by centrifugation at 4 °C, 4000 g for 5 minutes and stored at -80 °C.
• 1) 10 µL of plasma sample was precipitated by adding 200 µL of acetonitrile, vortex mixed, and centrifuged for 15 minutes. • 2) The processed supernatant was diluted with water and analyzed by LC/MS/MS to determine the concentration of the test compound.
Pharmacokinetic parameters were calculated using WinNonlin 8.3. The pharmacokinetic parameters for mice P.O. are shown in Table 4, and for rats P.O. in Table 5. Cmax represents the maximum plasma concentration, T1/2 represents the terminal elimination half-life, MRTInf represents the mean residence time, and AUC represents the area under the plasma concentration-time curve. Table 4 Pharmacokinetic Parameters of the Compounds of the Present Disclosure in Mice

[2] = 0.03 mpk, 30min after ACTH stimulation, plasma
[3] = 0.1 mpk, 30min after ACTH stimulation, plasma
[4] = 0.3 mpk, 30min after ACTH stimulation, plasma

SMILES | IC50 (human CYP11B2 enzyme) | AUC(0-t) (in vivo) | Cmax (in vivo) | IC50 (human CYP11B1 enzyme) | Cmax [1] | MRT inf [1] | half-life [1] | AUC(0-t) [1] | Aldosterone (plasma hormone levels; 0.03 mpk, 0h, plasma) | Cortisol (plasma hormone levels; 0.03 mpk, 0h, plasma) | Aldosterone (plasma hormone levels; [2]) | Cortisol (plasma hormone levels; [2]) | Aldosterone (plasma hormone levels; 0.1 mpk, 0h, plasma) | Cortisol (plasma hormone levels; 0.1 mpk, 0h, plasma) | Aldosterone (plasma hormone levels; [3]) | Cortisol (plasma hormone levels; [3]) | Aldosterone (plasma hormone levels; 0.3 mpk, 0h, plasma) | Cortisol (plasma hormone levels; 0.3 mpk, 0h, plasma) | Aldosterone (plasma hormone levels; [4]) | Cortisol (plasma hormone levels; [4]) | other results
CCC(=O)N[C@@H]1CCOc2c(-c3ccc4c(ccc(=O)n4C)c3)cncc21 [Compound A09] | 0.0082 µM and 0.0138 µM | 522 µM·h | 52.1 µM | 3.38 µM and 18.8 µM |  |  |  |  | 0.20 ng/mL | 214.0 ng/mL | 0.34 ng/mL | 285.3 ng/mL | 0.24 ng/mL | 256.7 ng/mL | 012 ng/mL | 345.0 ng/mL | 0.08 ng/mL | 286.7 ng/mL | 0.07 ng/mL | 388.3 ng/mL | MRT inf (in vivo): 8.19 h; half-life (in vivo): 5.91 h
[2H]C([2H])([2H])NC(=O)N[C@@H]1CCCc2c(-c3ccc4c(c3)COC(=O)N4C)cncc21 [Compound A16] | 0.0095 µM |  |  |  | 51.7 µM | 2.37 h | 1.07 h | 184 µM·h |  |  |  |  |  |  |  |  |  |  |  |  | 

Further lines, with some results ahead:

IC50 (human CYP11B2 enzyme) | AUC(0-t) (in vivo) | Cmax (in vivo) | IC50 (human CYP11B1 enzyme) | Cmax [1] | MRT inf [1] | half-life [1] | AUC(0-t) [1] | SMILES | Aldosterone (plasma hormone levels; 0.03 mpk, 0h, plasma) | Cortisol (plasma hormone levels; 0.03 mpk, 0h, plasma) | Aldosterone (plasma hormone levels; [2]) | Cortisol (plasma hormone levels; [2]) | Aldosterone (plasma hormone levels; 0.1 mpk, 0h, plasma) | Cortisol (plasma hormone levels; 0.1 mpk, 0h, plasma) | Aldosterone (plasma hormone levels; [3]) | Cortisol (plasma hormone levels; [3]) | Aldosterone (plasma hormone levels; 0.3 mpk, 0h, plasma) | Cortisol (plasma hormone levels; 0.3 mpk, 0h, plasma) | Aldosterone (plasma hormone levels; [4]) | Cortisol (plasma hormone levels; [4]) | other results
0.0132 µM |  |  | 1.15 µM | 30.2 µM | 4.36 h | 2.54 h | 223 µM·h | CCC(=O)N[C@@H]1CCCc2c(-c3ccc4c(c3)COC(=O)N4C)cncc21 [Compound C07] |  |  |  |  |  |  |  |  |  |  |  |  | 
0.0111 µM |  |  | 4.9 µM | 25 µM | 5.07 h | 2.83 h | 209 µM·h | CCC(=O)N[C@@H]1CCCc2c(-c3cc(F)c4c(ccc(=O)n4C)c3)cncc21 [Compound C41] |  |  |  |  |  |  |  |  |  |  |  |  | 
0.0167 µM | 345 µM·h | 47.9 µM | 7.22 µM |  |  |  |  | CCC(=O)N[C@@H]1CCCc2c(-c3cc(C)c4c(ccc(=O)n4C)c3)cncc21 [Compound C43] | 0.16 ng/mL |  | 0.26 ng/mL |  | 0.16 ng/mL |  | 0.15 ng/mL |  | 0.20 ng/mL |  | 0.14 ng/mL |  | Cortisol (plasma hormone levels; 0.03 mpk, 0h, plasma (Table 11)): 268.3 ng/mL; Cortisol (plasma hormone levels; 0.03 mpk, 30min after ACTH stimulation, plasma (Table 11)): 358.7 ng/mL; Cortisol (plasma hormone levels; 0.1 mpk, 0h, plasma (Table 11)): 282.0 ng/mL; Cortisol (plasma hormone levels; 0.1 mpk, 30min after ACTH stimulation, plasma (Table 11)): 386.0 ng/mL; Cortisol (plasma hormone levels; 0.3 mpk, 0h, plasma (Table 11)): 276.0 ng/mL; Cortisol (plasma hormone levels; 0.3 mpk, 30min after ACTH stimulation, plasma (Table 11)): 346.7 ng/mL; MRT inf (in vivo): 6.24 h; half-life (in vivo): 4.77 h
0.187 µM |  |  |  | 53.1 µM | 4.78 h | 2.28 h | 421 µM·h | CCC(=O)N[C@@H]1CCCc2c(-c3cc(F)c4c(c3)COC(=O)N4C)cncc21 [Compound C44] | 0.07 ng/mL | 279.5 ng/mL | 0.28 ng/mL | 384.0 ng/mL | 0.24 ng/mL | 455.0 ng/mL | 0.20 ng/mL | 538.5 ng/mL | 0.07 ng/mL | 265.5 ng/mL | 0.07 ng/mL | 396.0 ng/mL | 

— patent EP4806899A1, “FUSED RING DERIVATIVE, PREPARATION METHOD THEREFOR AND USE THEREOF IN MEDICINE” (Shanghai Qilu Pharmaceutical Research and Development …, priority 2023, dated 2025)
